Assay results: patent US12060347B2 (BRISTOL-MYERS SQUIBB COMPANY, priority 2016, dated 2024)
Values belong to the compound of their own block, whether it stands above or below them.

Molecular target: T1, human PAR4 (Homo sapiens, UniProt Q96RI0)
T1 construct: expressed in transfected cells; host or cells: HEK293 PAR4 Clone 1.2A (BMS Arctic ID 383940)
T1 sequence (Q96RI0 18-385): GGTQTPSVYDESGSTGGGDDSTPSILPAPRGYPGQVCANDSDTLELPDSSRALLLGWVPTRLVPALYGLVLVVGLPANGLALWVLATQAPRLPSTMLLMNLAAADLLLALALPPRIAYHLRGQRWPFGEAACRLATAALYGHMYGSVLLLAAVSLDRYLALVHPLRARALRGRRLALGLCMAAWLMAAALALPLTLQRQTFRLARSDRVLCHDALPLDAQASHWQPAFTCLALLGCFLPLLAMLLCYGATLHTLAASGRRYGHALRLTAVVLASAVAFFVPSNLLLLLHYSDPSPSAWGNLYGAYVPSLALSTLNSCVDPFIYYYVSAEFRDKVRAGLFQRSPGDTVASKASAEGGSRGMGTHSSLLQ
Experiment: PAR4 FLIPR assay: antagonism of agonist-peptide-induced calcium mobilization in PAR4-expressing HEK293 cells
Format: cell-based
Settings: H-Ala-Phe(4-F)-[…]NH2-induced intracellular calcium mobilization, 11-point curves

SMILES: COc1cnc2c(-c3nc4c(C)c(C)c(OC)cc4s3)cc(CO)cc2n1 [Example 219, (3-methoxy-8-(6-methoxy-4,5-dimethylbenzo [d]thiazol-2-yl)quinoxalin-6-yl)methanol]
IC50: 5.5 nM

SMILES: COc1cnc2c(-c3nc4cc(F)c(OC)cc4s3)cc(C#N)cc2n1 [Example 221, 8-(5-fluoro-6-methoxybenzo[d]thiazol-2-yl)-3-methoxyquinoxaline-6-carbonitrile]
IC50: 21 nM

SMILES: COc1cnc2c(-c3nc4c(C)cc(OC)nc4s3)cc(CO)cc2n1 [Example 223, (3-methoxy-8-(5-methoxy-7-methylthiazolo[5,4-b]pyridin-2-yl)quinoxalin-6-yl)methanol]
IC50: 10 nM

SMILES: COc1cnc2c(-c3nc4c(Cl)c(F)c(OC)cc4s3)cc(CO)c(F)c2n1 [Example 224, (8-(4-chloro-5-fluoro-6-methoxybenzo[d]thiazol-2-yl)-5-fluoro-3-methoxyquinoxalin-6-yl)methanol]
IC50: 15 nM

SMILES: COCc1cnc2c(-c3nc4c(C)cc(OCCNS(=O)(=O)c5ccc(F)cc5)cc4s3)cc(C(N)=O)cc2n1 [Example 225, 8-(6-(2-(4-fluorophenylsulfonamido)ethoxy)-4-methylbenzo[d]thiazol-2-yl)-3-(methoxymethyl)quinoxaline-6-carboxamide]
IC50: 54 nM

SMILES: COCc1cnc2c(-c3nc4c(C)cc(OCCNS(=O)(=O)c5ccc(F)cc5)cc4s3)cc(C(=O)N3CCCCC3)cc2n1 [Example 227, 4-fluoro-N-(2-((2-(2-(methoxymethyl)-7-(piperidine-1-carbonyl)quinoxalin-5-yl)-4-methylbenzo[d]thiazol-6-yl)oxy)ethyl)benzenesulfonamide]
IC50: 160 nM

SMILES: COCCNC(=O)c1cc(-c2nc3c(C)cc(OCCNS(=O)(=O)c4ccc(F)cc4)cc3s2)c2ncc(COC)nc2c1 [Example 228, 8-(6-(2-(4-fluorophenylsulfonamido)ethoxy)-4-methylbenzo[d]thiazol-2-yl)-N-(2-methoxyethyl)-3-(methoxymethyl)quinoxaline-6-carboxamide]
IC50: 890 nM

SMILES: C=Cc1cc(-c2nc3c(C)cc(OCCNS(=O)(=O)c4ccc(F)cc4)cc3s2)c2ncc(OC)nc2c1 [Example 229, 4-fluoro-N-(2-((2-(2-methoxy-7-vinylquinoxalin-5-yl)-4-methylbenzo[d]thiazol-6-yl)oxy)ethyl)benzenesulfonamide]
IC50: 3.9 nM

SMILES: COc1cnc2c(-c3nc4c(C)cc(OCCNS(=O)(=O)c5ccc(F)cc5)cc4s3)cc(C(O)CO)cc2n1 (centres unmarked) [Example 236, N-(2-((2-(7-(1,2-dihydroxyethyl)-2-methoxyquinoxalin-5-yl)-4-methylbenzo[d]thiazol-6-yl)oxy)ethyl)-4-fluorobenzenesulfonamide]
IC50: 140 nM

SMILES: COc1cnc2c(-c3nc4c(C)cc(OCCNS(=O)(=O)c5ccc(F)cc5)cc4s3)cc(CCO)cc2n1 [Example 237, 4-fluoro-N-(2-((2-(7-(2-hydroxyethyl)-2-methoxyquinoxalin-5-yl)-4-methylbenzo[d]thiazol-6-yl)oxy)ethyl)benzenesulfonamide]
IC50: 170 nM

SMILES: COc1cnc2c(-c3nc4c(C)cc(OCCNS(=O)(=O)c5ccc(F)cc5)cc4s3)cc(CN)cc2n1 [Example 238, N-(2-((2-(7-(aminomethyl)-2-methoxyquinoxalin-5-yl)-4-methylbenzo[d]thiazol-6-yl)oxy)ethyl)-4-fluorobenzenesulfonamide]
IC50: 1300 nM

SMILES: COc1cnc2c(-c3nc4c(C)cc(OCCNS(=O)(=O)c5ccc(F)cc5)cc4s3)cc(C(C)O)cc2n1 (centres unmarked) [Example 239, 4-fluoro-N-(2-((2-(7-(1-hydroxyethyl)-2-methoxyquinoxalin-5-yl)-4-methylbenzo[d]thiazol-6-yl)oxy)ethyl)benzenesulfonamide]
IC50: 7.9 nM

SMILES: COc1cnc2c(-c3nc4c(C)cc(OCCNS(=O)(=O)c5ccc(F)cc5)cc4s3)cc(C(O)c3ccccc3)cc2n1 (centres unmarked) [Example 240, 4-fluoro-N-(2-((2-(7-(hydroxy(phenyl)methyl)-2-methoxyquinoxalin-5-yl)-4-methylbenzo[d]thiazol-6-yl)oxy)ethyl)benzenesulfonamide]
IC50: 72 nM

SMILES: C=C(C)c1cc(-c2nc3c(C)cc(OCCNS(=O)(=O)c4ccc(F)cc4)cc3s2)c2ncc(OC)nc2c1 [Example 241, 4-fluoro-N-(2-((2-(2-methoxy-7-(prop-1-en-2-yl)quinoxalin-5-yl)-4-methylbenzo[d]thiazol-6-yl)oxy)ethyl)benzenesulfonamide]
IC50: 5.4 nM

SMILES: COc1cnc2c(-c3nc4c(C)cc(OCCNS(=O)(=O)c5ccc(F)cc5)cc4s3)cc(C(C)(C)O)cc2n1 [Example 242, 4-fluoro-N-(2-((2-(7-(2-hydroxypropan-2-yl)-2-methoxyquinoxalin-5-yl)-4-methylbenzo[d]thiazol-6-yl)oxy)ethyl)benzenesulfonamide]
IC50: 120 nM

SMILES: COc1cnc2c(-c3nc4c(C)c(F)c(OC)cc4s3)cc(C(O)c3ccccc3)cc2n1 (centres unmarked) [Example 245, (8-(5-fluoro-6-methoxy-4-methylbenzo[d]thiazol-2-yl)-3-methoxyquinoxalin-6-yl) (phenyl)methanol]
IC50: 92 nM

SMILES: COc1cnc2c(-c3nc4c(C)c(F)c(OC)cc4s3)cc(C(O)C3CC3)cc2n1 (centres unmarked) [Example 246, Cyclopropyl(8-(5-fluoro-6-methoxy-4-methylbenzo[d]thiazol-2-yl)-3-methoxyquinoxalin-6-yl)methanol]
IC50: 140 nM

SMILES: Cc1cnc2c(-c3nc4c(C)cc(OCCNS(=O)(=O)c5ccc(F)cc5)cc4s3)cc(F)cc2n1 [Example 247, 4-fluoro-N-(2-((2-(7-fluoro-2-methylquinoxalin-5-yl)-4-methylbenzo[d]thiazol-6-yl)oxy)ethyl)benzenesulfonamide]
IC50: 19 nM

SMILES: COc1cnc2c(-c3nc4cc(F)c(OC(C)C)cc4s3)cc(CO)cc2n1 [Example 248, (8-(5-fluoro-6-isopropoxybenzo[d]thiazol-2-yl)-3-methoxyquinoxalin-6-yl)methanol]
IC50: 19 nM

SMILES: COc1cnc2c(-c3nc4c(C)cc(OCCNS(=O)(=O)c5cccnc5)cc4s3)cc(Cl)cc2n1 [Example 249, N-(2-((2-(7-chloro-2-methoxyquinoxalin-5-yl)-4-methylbenzo[d]thiazol-6-yl)oxy)ethyl)pyridine-3-sulfonamide]
IC50: 6.9 nM

SMILES: CCOC(=O)COc1cc(C)c2nc(-c3cc(Cl)cc4nc(OC)cnc34)sc2c1 [Example 250, Ethyl 2-((2-(7-chloro-2-methoxyquinoxalin-5-yl)-4-methylbenzo[d]thiazol-6-yl)oxy) acetate]
IC50: 31 nM

The next compounds have a lower IC50 than those just listed; values first:

IC50: 2.5 nM
SMILES: COc1cnc2c(-c3nc4c(Cl)c(F)c(OC)cc4s3)cc(CO)cc2n1 [Example 218, (8-(4-chloro-5-fluoro-6-methoxybenzo[d]thiazol-2-yl)-3-methoxyquinoxalin-6-yl)methanol]

IC50: 2.6 nM
SMILES: COc1cnc2c(-c3nc4c(F)c(F)c(OC)cc4s3)cc(CO)cc2n1 [Example 220, (8-(4,5-difluoro-6-methoxybenzo[d]thiazol-2-yl)-3-methoxyquinoxalin-6-yl)methanol]

IC50: 1 nM
SMILES: COc1cnc2c(-c3nc4cc(F)c(OC)cc4s3)cc(CO)cc2n1 [Example 222, (8-(5-fluoro-6-methoxybenzo [d]thiazol-2-yl)-3-methoxyquinoxalin-6-yl)methanol]

IC50: 2.2 nM
SMILES: C#Cc1cc(-c2nc3c(C)cc(OCCNS(=O)(=O)c4ccc(F)cc4)cc3s2)c2ncc(OC)nc2c1 [Example 230, N-(2-((2-(7-ethynyl-2-methoxyquinoxalin-5-yl)-4-methylbenzo[d]thiazol-6-yl)oxy)ethyl)-4-fluorobenzenesulfonamide]

IC50: 1 nM
SMILES: COc1cnc2c(-c3nc4c(C)cc(OCCNS(=O)(=O)c5ccc(F)cc5)cc4s3)cc(C#N)cc2n1 [Example 231, N-(2-((2-(7-cyano-2-methoxyquinoxalin-5-yl)-4-methylbenzo[d]thiazol-6-yl)oxy)ethyl)-4-fluorobenzenesulfonamide]

IC50: 0.7 nM
SMILES: COCc1cnc2c(-c3nc4c(C)cc(OCCNS(=O)(=O)c5ccc(F)cc5)cc4s3)cc(C#N)cc2n1 [Example 232, N-(2-((2-(7-cyano-2-(methoxymethyl)quinoxalin-5-yl)-4-methylbenzo[d]thiazol-6-yl)oxy)ethyl)-4-fluorobenzenesulfonamide]

IC50: 0.4 nM
SMILES: COCc1cnc2c(-c3nc4c(C)cc(OC)cc4s3)cc(C#N)cc2n1 [Example 233, 8-(6-methoxy-4-methylbenzo[d]thiazol-2-yl)-3-(methoxymethyl)quinoxaline-6-carbonitrile]

IC50: 1.4 nM
SMILES: C=Cc1cc(-c2nc3c(C)cc(OCCNS(=O)(=O)c4ccc(F)cc4)cc3s2)c2ncc(COC)nc2c1 [Example 234, 4-fluoro-N-(2-((2-(2-(methoxymethyl)-7-vinylquinoxalin-5-yl)-4-methylbenzo[d]thiazol-6-yl)oxy)ethyl)benzenesulfonamide]

IC50: 2.2 nM
SMILES: COc1cnc2c(-c3nc4c(C)cc(OCCNS(=O)(=O)c5ccc(F)cc5)cc4s3)cc(CO)cc2n1 [Example 235, 4-fluoro-N-(2-((2-(7-(hydroxymethyl)-2-methoxyquinoxalin-5-yl)-4-methylbenzo[d]thiazol-6-yl)oxy)ethyl)benzenesulfonamide]

IC50: 1.2 nM
SMILES: COc1cnc2c(-c3nc4c(C)c(F)c(OC)cc4s3)cc(CO)cc2n1 [Example 243, (8-(5-fluoro-6-methoxy-4-methylbenzo[d]thiazol-2-yl)-3-methoxyquinoxalin-6-yl) methanol]

IC50: 2 nM
SMILES: COc1cnc2c(-c3nc4c(C)c(F)c(OC)cc4s3)cc(C(C)O)cc2n1 (centres unmarked) [Example 244, 1-(8-(5-fluoro-6-methoxy-4-methylbenzo[d]thiazol-2-yl)-3-methoxyquinoxalin-6-yl) ethanol]
